Assay results published in patent publication US10975075B2, “Imidazolonylquinolines and the use thereof as ATM kinase inhibitors” (priority 2015, dated 2021).
pIC50: −log10 of the molar value.

These compounds were tested on phosphorylation of CHK2 (phospho-Thr68) in HCT116 cells (assay: Cellular pCHK2 assay (bleomycin-induced phosphorylation of CHK2 phospho-Thr68, immunofluorescence high content)). Settings: 10 μM bleomycin, 4 h.
Assay type: cell-based, human
From the text: For the identification of substances which inhibit the phosphorylation of the protein kinase CHK2 at the amino acid threonine 68, an immunofluorescence-based “high content” analysis assay was used in HCT116 cells.
In vitro cell-based immunofluorescence assay for the identification of inhibitors of bleomycin-induced phosphorylation of CHK2 (phospho-Thr68) in the human colon carcinoma cell line HCT116:
HCT116 cells are sown out in a defined cell density in 384-well plates in culture medium (DMEM high glucose, 2 mM GlutaMax, 1 mM Na pyruvate, 10% FCS) and incubated overnight at 37° C. and 10% of CO2. On the following day, the test substances are added in a defined concentration range (1 nM to 30 μM) in combination with 10 μM bleomycin, where the concentration of the solvent DMSO is kept constant at 0.5%. […] Parallel staining of DNA with propidium iodide enables determination of the cell count. The pCHK2 signal is detected using a high-content imager (Molecular Devices IMX Ultra) and automatic image analysis using the MetaXpress software belonging to the instrument. The number of cell nuclei which have a pCHK2 signal above a defined background is determined.
`COc1cc2ncc3c(c2cc1-c1cn[nH]c1)n(-c1ccncc1C)c(=O)n3C` [Compound Example 19, 7-Methoxy-3-methyl-1-(3-methylpyridin-4-yl)-8-(1 H-pyrazol-4-yl)-1,3-dihydro-imidazo[4,5-c]quinolin-2-one] was tested, and the pIC50 was greater than 6.70. For `COc1cc2ncc3c(c2cc1-c1cnn(C)c1)n(-c1cnn(C)c1)c(=O)n3C` [Compound Example 23, 7-Methoxy-3-methyl-1,8-bis-(1-methyl-1H-pyrazol-4-yl)-1,3-dihydroimidazo[4,5-c] quinolin-2-one], the pIC50 was greater than 6.70. Work on `COc1cc2ncc3c(c2cc1-c1cnn(C)c1)n(-c1c(C)n[nH]c1C)c(=O)n3C` [Example 118, 1-(3,5-Dimethyl-1H-pyrazol-4-yl)-7-methoxy-3-methyl-8-(1-methyl-1H-pyrazol-4-yl)-1,3-dihydroimidazo[4,5-c]-quinolin-2-one] yielded a pIC50 of 6.00 to 6.70.
